From patent publication US8637683B2, “Macrocyclic lactone derivatives for the treatment of cancer” (Piramal Enterprises Limited, priority 2009, dated 2014)
Values after ≈ are worked out from the molar mass of the structure shown. Values joined by “and” are separate entries in the source; they are usually repeats but may differ in a detail not shown here. Equal values may be shown once. Read-outs that look alike come from different tables or passages of the source.

Key:
PAXF 1657L = assay: Monolayer assay (modified propidium iodide), PAXF 1657L; assay type: cell-based, human; conditions: Pancreas, 4 days of treatment
Text: (§1) Oncotest GmbH, Germany's proprietary tumor cell line panel comprises 40 cell lines. These cell lines were derived from 15 different tumor histotypes, each represented by 1 to 6 different cell lines. Cell lines were established from cancer of the bladder (3), colon (4), head and neck (1), lung (6), breast (3), pancreas (3), prostate (4), ovary (2), kidney (3), liver (1), stomach (1) and the uteri body (1), as well as from melanoma (3), sarcoma (2) and pleuramesothelioma (3). Out of these 40 cell lines, 24 cell lines were established at Oncotest, from patient-derived tumor xenografts. […]
(§2) Stock solutions of the test compounds (330 μg/mL in DMSO) were prepared and stored in small aliquots (200 μL) at −20° C. […] Each concentration was evaluated in triplicate. […]
(§3) Cells were plated in 96-well flat-bottom microtiter plates at a cell density of 4,000 to 10,000 cells/well. […] To measure the viable cell number, the remaining adherent cells were killed and permeabilized by repeated freezing and thawing and PI fluorescence was measured using the Cytofluor 4000 microplate reader (excitation λ=530 nm, emission λ=620 nm), which was a measure for the number of cells which survived treatment. […] IC-values were calculated based on the principle of linear two-point curve fit. […]

MCF 7 = assay: Monolayer assay (modified propidium iodide), MCF 7; assay type: cell-based, human; conditions: MCF 7, Mammary, 4 days of treatment
Text: as §1, §2, §3

LXF 289L = assay: Monolayer assay (modified propidium iodide), LXF 289L; assay type: cell-based, human; conditions: Lung, 4 days of treatment
Text: as §1, §2, §3

MEXF 1341L = assay: Monolayer assay (modified propidium iodide), MEXF 1341L; assay type: cell-based, human; conditions: Melanoma, 4 days of treatment
Text: as §1, §2, §3

OVXF 899L = assay: Monolayer assay (modified propidium iodide), OVXF 899L; assay type: cell-based, human; conditions: Ovarian, 4 days of treatment
Text: as §1, §2, §3

UXF 1138L = assay: Monolayer assay (modified propidium iodide), UXF 1138L; assay type: cell-based, human; conditions: Uterus, 4 days of treatment
Text: as §1, §2, §3

HCT 116 = assay: Monolayer assay (modified propidium iodide), HCT 116; assay type: cell-based, human; conditions: HCT 116, Colon, 4 days of treatment
Text: as §1, §2, §3

SACS2 = assay: Monolayer assay (modified propidium iodide), SACS2; assay type: cell-based, human; conditions: SACS2, Sarcoma, 4 days of treatment
Text: as §1, §2, §3

OVCAR3 = assay: Monolayer assay (modified propidium iodide), OVCAR3; assay type: cell-based, human; conditions: OVCAR3, Ovarian, 4 days of treatment
Text: as §1, §2, §3

[1] = test system: panel of 40 human tumor cell lines; assay: Monolayer assay, panel of 40 human tumor cell lines; assay type: cell-based
Text: Oncotest GmbH, Germany's proprietary tumor cell line panel comprises 40 cell lines. These cell lines were derived from 15 different tumor histotypes, each represented by 1 to 6 different cell lines. Cell lines were established from cancer of the bladder (3), colon (4), head and neck (1), lung (6), breast (3), pancreas (3), prostate (4), ovary (2), kidney (3), liver (1), stomach (1) and the uteri body (1), as well as from melanoma (3), sarcoma (2) and pleuramesothelioma (3). Out of these 40 cell lines, 24 cell lines were established at Oncotest, from patient-derived tumor xenografts. The other 16 cell lines were either provided by the NCI (Bethesda; MD, USA) or were purchased from ATCC (Rockville, Md., USA) or DSMZ (Braunschweig, Germany).
Cell lines were routinely passaged once or twice weekly and maintained in culture for upto 20 passages. All cells were grown at 37° C. in a humidified atmosphere with 5% CO2 in RPMI 1640 medium supplemented with 10% (v/v) fetal calf serum (FCS) and 0.1 mg/mL gentamicin (medium and all other components from PAA, Cölbe, Germany). Authenticity of all cell lines was proven at the DSMZ by STR (short tandem repeat) analysis, a PCR based DNA-fingerprinting methodology.
Stock solutions of the test compounds (330 μg/mL in DMSO) were prepared and stored in small aliquots (200 μL) at −20° C. An aliquot of the stock solution was thawed on the day of use and stored at room temperature prior to and during dosing. The subsequent dilutions were done with complete RPMI 1640 cell culture medium as follows: the stock solution was diluted 1:22 followed by serial dilutions finally resulting in a (compared to the test concentration) 15-fold higher concentration. For the final dilution step (1:15), 10 μL/well of the respective compound solution was directly added to 140 μL/well culture medium. Test compounds were tested at […]. Each concentration was evaluated in triplicate.
A modified propidium iodide assay was used to assess the effect of the test compounds on the growth of the human tumor cell lines and was designed as in reference, Anti-cancer Drugs, 6, 522-532, (1995), the disclosure of which is incorporated by reference for the teaching of the assay.
Cells were plated in 96-well flat-bottom microtiter plates at a cell density of 4,000 to 10,000 cells/well. After a 24 h recovery period to allow the cells to resume exponential growth, the test compounds were applied at five concentrations in log increments in triplicates in two independent runs. After 4 days of treatment, the medium with/without test compounds including all floating (i.e., dead) cells was aspirated and replaced by 200 μL of an aqueous propidium iodide (PI) solution (7 μg/mL). To measure the viable cell number, the remaining adherent cells were killed and permeabilized by repeated freezing and thawing and PI fluorescence was measured using the Cytofluor 4000 microplate reader (excitation λ=530 nm, emission λ=620 nm), which was a measure for the number of cells which survived treatment. Pharmacological effects on cell proliferation and survival were expressed as Test/Control×100 (% T/C) values, with T and C representing the fluorescence read-outs for wells with and without test compound, respectively, i.e. T/C represents the ratio of viable cell numbers following incubation of cell line with/without test compound. Based on the T/C values IC50 and IC70 values, being the drug concentration necessary to inhibit cell growth by 50% (T/C=50%) and 70% (T/C=30%), respectively, were determined by plotting compound concentration versus cell viability (T/C). IC-values were calculated based on the principle of linear two-point curve fit. […]

LXF 1121L = assay: Monolayer assay (modified propidium iodide), LXF 1121L; assay type: cell-based, human; conditions: Lung, 4 days of treatment
Text: as §1, §2, §3

MEXF 276L = assay: Monolayer assay (modified propidium iodide), MEXF 276L; assay type: cell-based, human; conditions: Melanoma, 4 days of treatment
Text: as §1, §2, §3

DU 145 = assay: Monolayer assay (modified propidium iodide), DU 145; assay type: cell-based, human; conditions: DU 145, Prostate, 4 days of treatment
Text: as §1, §2, §3

MEXF 462NL = assay: Monolayer assay (modified propidium iodide), MEXF 462NL; assay type: cell-based, human; conditions: Melanoma, 4 days of treatment
Text: as §1, §2, §3

PXF 698L = assay: Monolayer assay (modified propidium iodide), PXF 698L; assay type: cell-based, human; conditions: Pleuramesothelioma, 4 days of treatment
Text: as §1, §2, §3

RXF 486L = assay: Monolayer assay (modified propidium iodide), RXF 486L; assay type: cell-based, human; conditions: Renal, 4 days of treatment
Text: as §1, §2, §3

C/C=C/C(O)C(C)/C=C/C(=N\O)C(C)C(O)C(C)C1OC(=O)/C(OC)=C/C(C)=C/C(C)C(O)C(CC)C(O)C(C)C/C(C)=C/C=C/C1OC (stereo not shown) [Example 7, (3Z,5E,13E,15E)-18-((5Z,6E,10E)-3,9-Dihydroxy-5-(hydroxymino)-4,8-dimethyldodeca-6,10-dien-2-yl)-9-ethyl-8,10-dihydroxy-3,17-dimethoxy-5,7,11,13-tetramethyl oxacyclooctadeca-3,5,13,15-tetraen-2-one]
IC50 (PAXF 1657L; Homo sapiens, 96 h): 8 ng/mL (≈ 11.6 nM)
IC70 (PAXF 1657L): >1000 ng/mL
IC50 (MCF 7; Homo sapiens, MCF7, 96 h): 1 ng/mL (≈ 1.45 nM)
IC70 (MCF 7): 4.0 ng/mL (≈ 5.8 nM)
IC50 (LXF 289L; Homo sapiens, 96 h): 6 ng/mL (≈ 8.7 nM)
IC70 (LXF 289L): 68.0 ng/mL (≈ 98.6 nM)
IC50 (MEXF 1341L; Homo sapiens, 96 h): 0.2 ng/mL (≈ 0.29 nM)
IC70 (MEXF 1341L): 2.0 ng/mL (≈ 2.9 nM)
IC50 (OVXF 899L; Homo sapiens, 96 h): 8 ng/mL (≈ 11.6 nM)
IC70 (OVXF 899L): 31.0 ng/mL (≈ 44.9 nM)
IC50 (UXF 1138L; Homo sapiens, 96 h): 5 ng/mL (≈ 7.25 nM)
IC70 (UXF 1138L): 11.0 ng/mL (≈ 15.9 nM)
IC70 (HCT 116): 5.0 ng/mL (≈ 7.25 nM)
IC50 (HCT 116; Homo sapiens, 96 h): 3 ng/mL (≈ 4.35 nM)
IC50 (SACS2; Homo sapiens, 96 h): 5 ng/mL (≈ 7.25 nM)
IC70 (SACS2): >1000 ng/mL
IC50 (OVCAR3; Homo sapiens, OVCAR-3, 96 h): 0.4 ng/mL (≈ 0.58 nM)
IC70 (OVCAR3): >1000 ng/mL
activity in all cell lines as tested ([1]; 40 cell lines): concentration-dependent activity
tumor selectivity ([1]; 40 cell lines): remarkable level of tumor selectivity
Tumor selectivity: number of cell lines among the histotype with individual IC70 <mean IC70 ([1]; Bladder): 2 out of 3 and 2/3
Tumor selectivity: number of cell lines among the histotype with individual IC70 <mean IC70 ([1]; Breast (mammary)): 2/3 and 3/3
Tumor selectivity: number of cell lines among the histotype with individual IC70 <mean IC70 ([1]; Colon): 4/4
IC50 ([1]; Homo sapiens, all 40 cell lines, read-out: IC50): < 1000 ng/mL
Tumor selectivity: number of cell lines among the histotype with individual IC70 <mean IC70 ([1]; Lung): 5/6
Tumor selectivity: number of cell lines among the histotype with individual IC70 <mean IC70 ([1]; Melanoma): 2/3
Tumor selectivity: number of cell lines among the histotype with individual IC70 <mean IC70 ([1]; Pleurameso): 1/3
Tumor selectivity: number of cell lines among the histotype with individual IC70 <mean IC70 ([1]; Prostate): 2/4
IC70 ([1]; all 4 colon cancer cell lines): ≤ 5 ng/mL
Mean IC70 ([1]; mean over panel of 40 human tumor cell lines): 9.1 ng/mL
IC50 ([1]; mean over panel of 40 human tumor cell lines, read-out: Mean IC50): 1.1 ng/mL (≈ 1.59 nM)
IC50 (LXF 1121L; Homo sapiens, 96 h): 1 ng/mL (≈ 1.45 nM)
IC70 (LXF 1121L): 5.0 ng/mL (≈ 7.25 nM)
IC50 (MEXF 276L; Homo sapiens, MEXF276L, 96 h): 1 ng/mL (≈ 1.45 nM)
IC70 (MEXF 276L): 251.0 ng/mL (≈ 364 nM)
IC70 (DU 145): 0.6 ng/mL (≈ 0.87 nM)
IC50 (DU 145; Homo sapiens, 96 h): < 0.1 ng/mL
IC50 (MEXF 462NL; Homo sapiens, 96 h): 3 ng/mL (≈ 4.35 nM)
IC70 (MEXF 462NL): 6.0 ng/mL (≈ 8.7 nM)
IC50 (PXF 698L; Homo sapiens, 96 h): 0.4 ng/mL (≈ 0.58 nM)
IC70 (PXF 698L): 2.0 ng/mL (≈ 2.9 nM)
IC50 (RXF 486L; Homo sapiens, 96 h): 16 ng/mL (≈ 23.2 nM)
IC70 (RXF 486L): 39.0 ng/mL (≈ 56.5 nM)
